Entries after “also recorded” stand apart in the source; their conditions may differ. Ends that are not written are not given here.
Test system: MDA-MB-231 cells
Assay: Delivery of TMR-k5 probe into live cells (nuclear staining)
Format: cell-based, human
Conditions: MDA-MB-231, d(X)TAT at various concentrations + TMR-k5 20 μM, 1 h, fluorescence microscopy, biological triplicates
Excerpt: To test the relative delivery efficiency of the d(X)TAT peptides, the cell lines MDA-MB-231 (epithelial-like, human breast cancer, spindle-shaped) and Neuro-2a (mouse neuroblastoma with neuronal and amoeboid stem cell morphology) were chosen. These cell lines are routinely used in cancer research, neuroscience, and toxicology. In the context of this study, we rationalized that the distinct differences in origin and characteristics between MDA-MB-231 and Neuro-2a properties may be useful to assess the generality of the results obtained. MDA-MB-231 or Neuro-2a cells were incubated with d(X)TAT peptides at various concentrations and TMR-k5 (20 μM) for 1 h. Cells were then washed, incubated with the DNA stain Hoechst and the live/dead marker SYTOX green (or SYTOX blue), and imaged by fluorescence microscopy. The localization of TMR-k5 in individual nuclei was then assessed by measuring the overlap between TMR and Hoechst signals (Fig. 2, Figure S13). […] This is because, in our experience, dfTAT and dfTAT analogs display a threshold behavior where, below a certain endosomal concentration, endosomal leakage is not achieved. In contrast above this threshold most late endosomes are permeabilized. […] Our rationale was therefore to titrate cells with different concentrations of d(X)TAT agents, monitor how many cells display cytosolic/nuclear delivery of TMR-k5, and compare the different d(X)TAT peptides.
MDA-MB-231 and Neuro2a cells obtained from ATCC (breast cancer-derived epithelial) were cultured in humidified atmosphere at 5% CO2 and 37 °C. Cells were seeded in plastic 48-well plates (Fisher) for quantitative analysis or 8-well Labtek II plates (Fisher) for qualitative imaging at 100× magnification. The cells were grown to 80–90% confluency in a 37 °C humidified atmosphere containing 5% CO2. Cells were washed three times with Leibovitz’s L15 media (L15) (Fisher). Cells were then incubated with peptide and 20 µM of the TMR-k5 pentalysine probe at 37 °C for 1 h. This was followed by washing the cells three times with L15 supplemented with heparin (Sigma-Aldrich) (1 mg/mL) and an extra L15 wash. […] Additionally, the cell permeable dye Hoechst 33342 (Thermo Fisher Scientific o) was used for nuclear staining. Cells were imaged using an EVOS FL Auto 2 inverted microscope (Thermo Fisher Scientific). The microscope is equipped with a heating chamber maintained at 37 °C. Images were acquired using bright field imaging and five fluorescence filter sets: CFP (Ex = 436 ± 10 nm, Em = 480 ± 20 nm), RFP (Ex = 560 ± 20 nm, Em = 630 ± 35 nm), FITC (Ex = 488 ± 10 nm Em = 520 ± 20 nm), DAPI (Ex = 350 ± 50 nm, Em = 460 ± 25 nm), […]. For image viewing and processing individual images, the Celleste 4.0 software (Thermo Fisher Scientific) was used. Nuclear regions in 20× images where identified using Hoechst staining (the quantification process is described in Figure S13). The intensity of these objects in the TMR channel was then determined using the Celleste software. Cells stained by the SYTOX or DRAQ dyes were considered dead and not counted as positive for delivery. Cells displaying a nuclear TMR-k5 fluorescence above the fluorescence threshold determined for TMR-k5 alone were considered positive for delivery (if excluding SYTOX or DRAQ7 stain, and if visually showing stained nucleoli for confirmation of intracellular localization). The percentage of cells positive for TMR-k5 nuclear staining was then calculated, using Hoechst-stained cells to count the total number of cells present. […] Instead, this assay quantifies the number of cells in which the nuclear fluorescence of TMR-k5 is above a detection threshold. This threshold is dependent on the microscope, imaging conditions, and the concentration of TMR-k5 used during incubation (Figure S13). The reproducibility of all the experiments was assessed by performing experiments with independent batches of cell cultures on three different days (i.e., biological triplicates). […]

With “d(K(Ac))TAT: disulfide dimer of CXRKKRRQRRRG with X = lysine conjugated to an acetyl group (CK(Ac)RKKRRQRRRG-NH2; also: disulfide dimer)” the “TMR-k5 delivery activity (cells with TMR-k5 nuclear staining)” value was “little to no TMR-k5 delivery is detected; also recorded: no detectable delivery activity; also recorded: does not have a delivery activity detectable”.
